What was measured:
Assay in all cases: relative viability (nuclei count vs DMSO), 5 days (fraction); higher = more cells survive
[1] = compound: N#CC[C@H](C1CCCC1)n1cc(-c2ncnc3[nH]ccc23)cn1 [Ruxolitinib] + COc1cccc2cc(-c3nc([C@H]4CC[C@H](C(=O)O)CC4)n4ncnc(N)c34)[nH]c12 [OSI-027] (partner 0.5 µM)
Procedure, shortened: (§1)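 Cells from lung cancer lines were seeded into 1536-well plates and, one day later, dosed by pin tool. Treatments were either a single drug or a fixed dose of an anchor drug with five library-drug doses (not always all listed) in √10 steps. After 5 days, nuclei were stained in a one-step fixation (final 0.05% Triton X-100, 1% formaldehyde, 1 ug/ml Hoechst) and counted on 4× images, and relative viability is the treated-to-vehicle nuclei ratio, as the median of duplicate plates.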

[2] = compound: CS(=O)(=O)c1ccc(-c2cnc(N)c(C(=O)Nc3ccccc3)n2)cc1 [VE-821] + COc1cccc2cc(-c3nc([C@H]4CC[C@H](C(=O)O)CC4)n4ncnc(N)c34)[nH]c12 [OSI-027] (partner 0.5 µM)
Procedure, shortened: as §1

[3] = compound: N#CC[C@H](C1CCCC1)n1cc(-c2ncnc3[nH]ccc23)cn1 [Ruxolitinib] + N=C(N)NC(=N)NCCc1ccccc1 [Phenformin] (partner 250 µM)
Procedure, shortened: as §1

[4] = compound: CS(=O)(=O)c1ccc(C(=O)Nc2ccc(Cl)c(-c3ccccn3)c2)c(Cl)c1 [Vismodegib] + NC(=O)Nc1cc(-c2cccc(F)c2)sc1C(=O)N[C@H]1CCCNC1 [AZD7762] (partner 0.2 µM)
Procedure, shortened: as §1

Row | Cell Line | relative viability ([1]; first compound 0.08 µM) | relative viability ([1]; first compound 0.253 µM) | relative viability ([1]; first compound 0.8 µM) | relative viability ([1]; first compound 2.53 µM) | relative viability ([1]; first compound 8 µM) | relative viability ([2]; first compound 0.08 µM) | relative viability ([2]; first compound 0.253 µM) | relative viability ([2]; first compound 0.8 µM) | relative viability ([2]; first compound 2.53 µM) | relative viability ([2]; first compound 8 µM) | relative viability ([3]; first compound 0.08 µM) | relative viability ([3]; first compound 0.253 µM) | relative viability ([3]; first compound 0.8 µM) | relative viability ([3]; first compound 2.53 µM) | relative viability ([3]; first compound 8 µM) | relative viability ([4]; first compound 0.08 µM) | relative viability ([4]; first compound 0.253 µM) | relative viability ([4]; first compound 0.8 µM) | relative viability ([4]; first compound 2.53 µM) | relative viability ([4]; first compound 8 µM)
1 | NCI-H2342 | 0.557 | 0.564 | 0.674 | 0.585 | 0.736 | 0.648 | 0.54 | 0.639 | 0.584 | 0.527 | 0.55 | 0.484 | 0.662 | 0.55 | 0.613 | 0.576 | 0.479 | 0.633 | 0.362 | 0.416
2 | LK-2 | 0.222 | 0.187 | 0.18 | 0.182 | 0.214 | 0.194 | 0.203 | 0.245 | 0.221 | 0.176 | 0.337 | 0.499 | 0.359 | 0.292 | 0.692 | 0.401 | 0.479 | 0.419 | 0.387 | 0.447
3 | NCI-H1993 | 0.535 | 0.549 | 0.538 | 0.584 | 0.541 | 0.532 | 0.553 | 0.506 | 0.468 | 0.495 | 0.497 | 0.526 | 0.473 | 0.572 | 0.51 | 0.751 | 0.912 | 0.84 | 0.768 | 0.712
4 | A-427 | 0.434 | 0.465 | 0.566 | 0.364 | 0.439 | 0.514 | 0.418 | 0.391 | 0.412 | 0.286 | 0.291 | 0.3 | 0.338 | 0.281 | 0.276 | 0.739 | 0.706 | 0.805 | 0.619 | 0.801
5 | NCI-H2347 | 0.438 | 0.377 | 0.451 | 0.397 | 0.486 | 0.361 | 0.399 | 0.404 | 0.446 | 0.376 | 0.385 | 0.406 | 0.453 | 0.533 | 0.505 | 0.774 | 0.718 | 0.782 | 0.83 | 0.799
6 | ChaGo-K-1 | 0.698 | 0.436 | 0.544 | 0.524 | 0.545 | 0.624 | 0.475 | 0.669 | 0.649 | 0.419 | 0.45 | 0.401 | 0.414 | 0.449 | 0.446 | 0.886 | 0.873 | 0.753 | 0.857 | 0.97
7 | BEN | 0.336 | 0.299 | 0.304 | 0.266 | 0.267 | 0.279 | 0.297 | 0.332 | 0.277 | 0.316 | 0.232 | 0.281 | 0.244 | 0.239 | 0.255 | 0.792 | 0.68 | 0.77 | 0.684 | 0.701
8 | NCI-H23 | 0.743 | 0.617 | 0.696 | 0.496 | 0.522 | 0.486 | 0.531 | 0.483 | 0.624 | 0.331 | 0.892 | 0.807 | 0.804 | 0.67 | 0.727 | 0.264 | 0.34 | 0.276 | 0.23 | 0.232
9 | LU99A | 0.339 | 0.305 | 0.298 | 0.295 | 0.268 | 0.298 | 0.304 | 0.292 | 0.257 | 0.244 | 1.06 | 0.931 | 0.801 | 0.782 | 0.755 | 0.333 | 0.324 | 0.537 | 0.353 | 0.325
10 | ABC-1 | – | 0.379 | 0.83 | 0.455 | 0.539 | 0.53 | 0.485 | 0.485 | 0.475 | 0.381 | – | 0.282 | 0.316 | 0.287 | 0.294 | 0.97 | 0.851 | 0.823 | 0.803 | 0.839
11 | HCC-15 | 0.569 | 0.494 | 0.751 | 0.522 | 0.541 | 0.835 | 0.689 | 0.692 | 0.855 | 0.682 | 0.423 | 0.444 | 0.494 | 0.393 | 0.399 | 1.17 | 1.14 | 1.19 | 1.21 | 1.21
12 | EPLC-272H | 0.275 | 0.282 | 0.291 | 0.267 | 0.272 | 0.286 | 0.268 | 0.296 | 0.333 | 0.21 | 0.297 | 0.323 | 0.306 | 0.278 | 0.269 | 0.3 | 0.166 | 0.304 | 0.163 | 0.257
13 | NCI-H1792 | 0.694 | 0.624 | 0.675 | 0.529 | 0.6 | 0.725 | 0.786 | 0.608 | 0.447 | 0.484 | 0.253 | 0.241 | 0.261 | 0.146 | 0.128 | 0.682 | 0.679 | 0.677 | 0.724 | 0.729
